Laboratory results taken from patent US20230148214A1, “INDAZOLES AND AZAINDAZOLES AS LRRK2 INHIBITORS” (ESCAPE Bio, Inc., priority 2020, published 2023).

Experiments:
[1] = target: T1, LRRK2 WT (Homo sapiens, UniProt Q5S007); experiment: LRRK2 Kinase Activity Assay (LanthaScreen TR-FRET), wild type; assay type: biochemical; conditions: recombinant wild type LRRK2, 25 μM ATP, 400 nM LRRKtide, 60 min; class symbols
T1 construct: purchased Life Technologies PR8604B
Procedure, shortened: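 IC50 fitted to the compound-dependent loss of TR-FRET signal. Each kinase form, wild type or G2019S, phosphorylated the fluorescein-tagged ERM-derived LRRKtide in the presence of ATP and compound dilutions over 60 min at room temperature; quench contained 10 mM EDTA and 2 nM anti-pERM antibody (final).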

[2] = target: T2, LRRK2 G2019S (Homo sapiens, UniProt Q5S007, G2019S); experiment: LRRK2 Kinase Activity Assay (LanthaScreen TR-FRET), G2019S; assay type: biochemical; conditions: recombinant G2019S-LRRK2, 25 μM ATP, 400 nM LRRKtide, 60 min; class symbols
T2 construct: purchased Life Technologies PV4881
T2 sequence (Q5S007 whole entry G2019S): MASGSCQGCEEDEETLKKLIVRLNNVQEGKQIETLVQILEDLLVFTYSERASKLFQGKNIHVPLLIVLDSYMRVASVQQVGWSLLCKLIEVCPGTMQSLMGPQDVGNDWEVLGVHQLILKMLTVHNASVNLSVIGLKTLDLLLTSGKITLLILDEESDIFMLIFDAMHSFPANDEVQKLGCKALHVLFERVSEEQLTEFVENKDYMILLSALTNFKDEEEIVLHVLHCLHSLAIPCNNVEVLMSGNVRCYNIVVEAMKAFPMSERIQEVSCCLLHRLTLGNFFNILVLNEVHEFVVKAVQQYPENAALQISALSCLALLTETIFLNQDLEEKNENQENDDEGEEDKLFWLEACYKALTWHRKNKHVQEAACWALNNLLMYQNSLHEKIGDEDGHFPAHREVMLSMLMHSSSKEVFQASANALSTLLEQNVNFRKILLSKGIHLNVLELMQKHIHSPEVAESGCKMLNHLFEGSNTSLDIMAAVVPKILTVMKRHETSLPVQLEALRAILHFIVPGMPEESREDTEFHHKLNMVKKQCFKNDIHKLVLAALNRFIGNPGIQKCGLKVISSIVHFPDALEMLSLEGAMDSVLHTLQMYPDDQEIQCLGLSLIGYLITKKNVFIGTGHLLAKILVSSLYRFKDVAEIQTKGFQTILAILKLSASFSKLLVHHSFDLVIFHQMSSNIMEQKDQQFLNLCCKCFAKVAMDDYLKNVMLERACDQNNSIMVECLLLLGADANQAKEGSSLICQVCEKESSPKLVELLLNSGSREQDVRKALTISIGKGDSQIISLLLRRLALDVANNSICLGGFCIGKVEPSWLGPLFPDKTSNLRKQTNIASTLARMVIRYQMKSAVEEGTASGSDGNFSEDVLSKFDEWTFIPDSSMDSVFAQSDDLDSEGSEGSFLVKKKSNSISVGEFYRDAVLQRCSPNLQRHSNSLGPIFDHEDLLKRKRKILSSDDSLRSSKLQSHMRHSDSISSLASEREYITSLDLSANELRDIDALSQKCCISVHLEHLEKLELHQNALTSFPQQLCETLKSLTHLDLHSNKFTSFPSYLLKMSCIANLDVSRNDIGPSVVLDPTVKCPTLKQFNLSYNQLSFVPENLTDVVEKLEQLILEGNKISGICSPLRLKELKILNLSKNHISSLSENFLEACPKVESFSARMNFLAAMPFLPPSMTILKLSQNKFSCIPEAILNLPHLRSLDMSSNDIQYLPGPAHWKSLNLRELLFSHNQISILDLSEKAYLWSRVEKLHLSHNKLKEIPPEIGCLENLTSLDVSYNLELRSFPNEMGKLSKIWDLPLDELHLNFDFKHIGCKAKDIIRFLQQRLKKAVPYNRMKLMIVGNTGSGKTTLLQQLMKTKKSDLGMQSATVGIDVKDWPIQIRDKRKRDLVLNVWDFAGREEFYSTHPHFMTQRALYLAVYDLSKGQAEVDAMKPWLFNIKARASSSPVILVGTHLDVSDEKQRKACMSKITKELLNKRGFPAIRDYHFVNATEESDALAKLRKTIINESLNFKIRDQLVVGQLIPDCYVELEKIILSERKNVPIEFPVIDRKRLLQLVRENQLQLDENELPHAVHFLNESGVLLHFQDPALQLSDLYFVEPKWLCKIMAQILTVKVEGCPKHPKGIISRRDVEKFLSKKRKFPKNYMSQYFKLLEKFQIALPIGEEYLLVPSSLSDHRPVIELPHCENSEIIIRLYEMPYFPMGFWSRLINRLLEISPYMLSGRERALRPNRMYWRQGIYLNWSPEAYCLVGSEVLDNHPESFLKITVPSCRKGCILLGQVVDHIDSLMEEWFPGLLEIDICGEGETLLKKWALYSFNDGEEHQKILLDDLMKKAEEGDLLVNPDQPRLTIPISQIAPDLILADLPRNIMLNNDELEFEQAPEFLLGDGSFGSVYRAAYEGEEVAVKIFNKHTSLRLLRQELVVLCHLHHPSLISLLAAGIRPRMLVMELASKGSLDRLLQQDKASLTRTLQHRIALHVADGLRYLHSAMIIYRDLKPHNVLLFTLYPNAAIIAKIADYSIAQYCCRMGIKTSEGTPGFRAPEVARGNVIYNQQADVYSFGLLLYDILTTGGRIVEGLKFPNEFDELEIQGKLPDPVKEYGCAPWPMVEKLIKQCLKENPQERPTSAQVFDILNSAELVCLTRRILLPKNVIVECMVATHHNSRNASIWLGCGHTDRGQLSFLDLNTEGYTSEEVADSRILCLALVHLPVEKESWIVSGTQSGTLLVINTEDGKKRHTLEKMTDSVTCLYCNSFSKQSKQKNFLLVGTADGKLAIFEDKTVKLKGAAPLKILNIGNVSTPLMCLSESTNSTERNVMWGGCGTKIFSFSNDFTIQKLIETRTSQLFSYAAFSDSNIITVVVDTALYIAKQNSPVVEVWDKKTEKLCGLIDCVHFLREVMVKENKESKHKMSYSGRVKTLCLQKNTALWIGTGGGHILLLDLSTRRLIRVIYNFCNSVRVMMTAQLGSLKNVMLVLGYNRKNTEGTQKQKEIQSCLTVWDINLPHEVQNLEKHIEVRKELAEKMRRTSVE
Experimental: LRRK2 kinase activity was measured using a LanthaScreen™ Kinase Activity Assay from ThermoFisher Scientific. Recombinant wild type or G2019S-LRRK2 protein (Life Technologies, PR8604B or PV4881, respectively), was incubated with a fluorescein-labeled peptide substrate called LRRKtide that is based upon ezrin/radixin/moesin (ERM) (Life Technologies, PV4901) in the presence of ATP and serially diluted compound. […] Compound-dependent inhibition of the TR-FRET signal was used to generate a concentration-response curve for IC50 determination.
After 60 min incubation at room temperature, the reaction was stopped by addition of 10 μL of 2×stop solution containing a final concentration of 2 nM anti-pERM antibody and 10 mM EDTA.

T1 sequence (Q5S007 whole entry): as the sequence (Q5S007 whole entry G2019S) above, with S2019G counted along it

Compound	IC50 [1] [nM]	IC50 [2] [nM]
N#Cc1cc2c(nc1Cl)[C@@H](Oc1ccc3[nH]nc(C4CC4)c3c1)CCC2 (single isomer, unassigned) [181, enantiomer 2, 2-Chloro-8-[(3-cyclopropyl-1H-indazol-5-yl)oxy]-5,6,7,8-tetrahydroquinoline-3-carbonitrile]	100 to 1000	< 100
Cc1c(C#N)c(Cl)nc2c1CCC[C@@H]2Nc1ccc2[nH]nc(C3CC3)c2c1 (single isomer, unassigned) [183, enantiomer 1, 2-Chloro-8-[(3-cyclopropyl-1H-indazol-5-yl)amino]-4-methyl-5,6,7,8-tetrahydroquinoline-3-carbonitrile]	1000 to 10000	100 to 1000
Cc1c(C#N)c(Cl)nc2c1CCC[C@@H]2Oc1ccc2[nH]nc(C3CC3)c2c1 (single isomer, unassigned) [184, enantiomer 2, 2-Chloro-8-[(3-cyclopropyl-1H-indazol-5-yl)oxy]-4-methyl-5,6,7,8-tetrahydroquinoline-3-carbonitrile]	1000 to 10000	< 100
COc1n[nH]c2ccc(O[C@H]3CCc4cc(C#N)c(Cl)nc43)cc12 (single isomer, unassigned) [185, enantiomer 1, 2-Chloro-7-[(3-methoxy-1H-indazol-5-yl)oxy]-6,7-dihydro-5H-cyclopenta[b]pyridine-3-carbonitrile]	< 100	< 100
COc1n[nH]c2ccc(O[C@H]3CCc4cc(C#N)c(Cl)nc43)cc12 (single isomer, unassigned) [185, enantiomer 2, 2-Chloro-7-[(3-methoxy-1H-indazol-5-yl)oxy]-6,7-dihydro-5H-cyclopenta[b]pyridine-3-carbonitrile]	1000 to 10000	100 to 1000
COc1n[nH]c2ccc(O[C@H]3CCCc4cc(C#N)c(Cl)nc43)cc12 (single isomer, unassigned) [186, enantiomer 1, 2-Chloro-8-[(3-methoxy-1H-indazol-5-yl)oxy]-5,6,7,8-tetrahydroquinoline-3-carbonitrile]	< 100	< 100
COc1n[nH]c2ccc(O[C@H]3CCCc4cc(C#N)c(Cl)nc43)cc12 (single isomer, unassigned) [186, enantiomer 2, 2-Chloro-8-[(3-methoxy-1H-indazol-5-yl)oxy]-5,6,7,8-tetrahydroquinoline-3-carbonitrile]	1000 to 10000	100 to 1000
COc1n[nH]c2ccc(O[C@H]3CCc4cc(C#N)c(Br)nc43)cc12 (single isomer, unassigned) [187, enantiomer 1, 2-Bromo-7-[(3-methoxy-1H-indazol-5-yl)oxy]-6,7-dihydro-5H-cyclopenta[b]pyridine-3-carbonitrile]	< 100	< 100
COc1n[nH]c2ccc(O[C@H]3CCc4cc(C#N)c(Br)nc43)cc12 (single isomer, unassigned) [187, enantiomer 2, 2-Bromo-7-[(3-methoxy-1H-indazol-5-yl)oxy]-6,7-dihydro-5H-cyclopenta[b]pyridine-3-carbonitrile]	100 to 1000	100 to 1000
COc1n[nH]c2ccc(O[C@H]3CCCc4cc(C#N)c(Br)nc43)cc12 (single isomer, unassigned) [188, enantiomer 2, 2-Bromo-8-[(3-methoxy-1H-indazol-5-yl)oxy]-5,6,7,8-tetrahydroquinoline-3-carbonitrile]	1000 to 10000	100 to 1000
COc1n[nH]c2ccc(O[C@H]3CCc4cc(C#N)c(Cl)cc43)cc12 (single isomer, unassigned) [189, enantiomer 1, 6-Chloro-1-[(3-methoxy-1H-indazol-5-yl)oxy]-2,3-dihydro-1H-indene-5-carbonitrile]	1000 to 10000	100 to 1000
COc1n[nH]c2ccc(O[C@H]3CCc4cc(C#N)c(Cl)cc43)cc12 (single isomer, unassigned) [189, enantiomer 2, 6-Chloro-1-[(3-methoxy-1H-indazol-5-yl)oxy]-2,3-dihydro-1H-indene-5-carbonitrile]	100 to 1000	< 100
Cc1cc2[nH]nc(-c3cnco3)c2cc1NC1CCCc2cc(C#N)cnc21 (single isomer, unassigned) [190, enantiomer 1, 8-[[6-Methyl-3-(1,3-oxazol-5-yl)-1H-indazol-5-yl]amino]-5,6,7,8-tetrahydroquinoline-3-carbonitrile]	< 100	< 100
N#Cc1ccc2c(c1)OCC[C@@H]2Nc1ccc2[nH]nc(-c3cnco3)c2c1 (single isomer, unassigned) [191, enantiomer 1, 4-((3-(oxazol-5-yl)-1H-indazol-5-yl)amino)chromane-7-carbonitrile]	100 to 1000	< 100
N#Cc1ccc2c(c1)OCC[C@@H]2Nc1ccc2[nH]nc(I)c2c1 (single isomer, unassigned) [193, enantiomer 1, 4-((3-Iodo-1H-indazol-5-yl)amino)chromane-7-carbonitrile]	1000 to 10000	100 to 1000
N#Cc1ccc2c(c1)OCC[C@@H]2Nc1ccc2[nH]nc(I)c2c1 (single isomer, unassigned) [193, enantiomer 2, 4-((3-Iodo-1H-indazol-5-yl)amino)chromane-7-carbonitrile]	< 100	< 100
Cc1n[nH]c2ccc(O[C@H]3CCc4cc(C#N)ccc43)cc12 (single isomer, unassigned) [Example 1, enantiomer 1, 1-((3-Methyl-1H-indazol-5-yl)oxy)-2,3-dihydro-1H-indene-5-carbonitrile]	100 to 1000	< 100
Cc1n[nH]c2ccc(O[C@H]3CCc4cc(C#N)ccc43)cc12 (single isomer, unassigned) [Example 1, enantiomer 2, 1-((3-Methyl-1H-indazol-5-yl)oxy)-2,3-dihydro-1H-indene-5-carbonitrile]	100 to 1000	< 100
N#Cc1cnc2c(c1)CCC[C@@H]2Oc1ccc2[nH]nc(-c3cnoc3)c2c1 (single isomer, unassigned) [Example 2, enantiomer 1, 8-((3-(Isoxazol-4-yl)-1H-indazol-5-yl)oxy)-5,6,7,8-tetrahydroquinoline-3-carbonitrile]	< 100	< 100

Second part, the compound after the results:

IC50 [1] [nM]	IC50 [2] [nM]	Compound
< 100	< 100	N#Cc1cnc2c(n1)CC[C@@H]2Oc1ccc2[nH]nc(-c3cnco3)c2c1 (single isomer, unassigned) [182, enantiomer 1, 5-((3-(Oxazol-5-yl)-1H-indazol-5-yl)oxy)-6,7-dihydro-5H-cyclopenta[b]pyrazine-2-carbonitrile]
< 100	< 100	Cc1c(C#N)c(Cl)nc2c1CCC[C@@H]2Nc1ccc2[nH]nc(C3CC3)c2c1 (single isomer, unassigned) [183, enantiomer 2, 2-Chloro-8-[(3-cyclopropyl-1H-indazol-5-yl)amino]-4-methyl-5,6,7,8-tetrahydroquinoline-3-carbonitrile]
< 100	< 100	Cc1c(C#N)c(Cl)nc2c1CCC[C@@H]2Oc1ccc2[nH]nc(C3CC3)c2c1 (single isomer, unassigned) [184, enantiomer 1, 2-Chloro-8-[(3-cyclopropyl-1H-indazol-5-yl)oxy]-4-methyl-5,6,7,8-tetrahydroquinoline-3-carbonitrile]
< 100	< 100	COc1n[nH]c2ccc(O[C@H]3CCCc4cc(C#N)c(Br)nc43)cc12 (single isomer, unassigned) [188, enantiomer 1, 2-Bromo-8-[(3-methoxy-1H-indazol-5-yl)oxy]-5,6,7,8-tetrahydroquinoline-3-carbonitrile]
< 100	< 100	N#Cc1ccc2c(c1)OCC[C@@H]2Nc1ccc2[nH]nc(-c3cnco3)c2c1 (single isomer, unassigned) [191, enantiomer 2, 4-{[3-(1,3-oxazol-5-yl)-1H-indazol-5-yl]amino}-3,4-dihydro-2H-1-benzopyran-7-carbonitrile]
100 to 1000	100 to 1000	N#Cc1ccc2c(c1)OCC[C@@H]2Nc1ccc2[nH]nc(-c3cnoc3)c2c1 (single isomer, unassigned) [192, enantiomer 1, 4-((3-(Isoxazol-4-yl)-1H-indazol-5-yl)amino)chromane-7-carbonitrile]
< 100	< 100	N#Cc1ccc2c(c1)OCC[C@@H]2Nc1ccc2[nH]nc(-c3cnoc3)c2c1 (single isomer, unassigned) [192, enantiomer 2, 4-((3-(Isoxazol-4-yl)-1H-indazol-5-yl)amino)chromane-7-carbonitrile]
< 100	< 100	N#Cc1cnc2c(c1)OCC[C@@H]2Nc1ccc2[nH]nc(-c3cnco3)c2c1 (single isomer, unassigned) [194, enantiomer 1, 4-((3-(Oxazol-5-yl)-1H-indazol-5-yl)amino)-3,4-dihydro-2H-pyrano[3,2-b]pyridine-7-carbonitrile]
100 to 1000	100 to 1000	N#Cc1cnc2c(c1)OCC[C@@H]2Nc1ccc2[nH]nc(-c3cnco3)c2c1 (single isomer, unassigned) [194, enantiomer 2, 4-((3-(Oxazol-5-yl)-1H-indazol-5-yl)amino)-3,4-dihydro-2H-pyrano[3,2-b]pyridine-7-carbonitrile]
